Data from patent publication US9993001B2, “Herbicidal composition” (ISHIHARA SANGYO KAISHA, LTD., priority 2014, dated 2018).

How the values were obtained:
Format in all cases: in vivo
[1] = test system: large crabgrass (Digitaria sanquinalis L.); assay: Test Example 28: pot, soil treatment, metobromuron + pendimethalin; details: soil, read-out: Growth inhibition rate of large crabgrass (%) Measured value
Description: (§1) When the herbicidal activity in a case where two active ingredients are combined, is larger than the simple sum of the respective herbicidal activities of the two active ingredients (the expected activity), it is called a synergistic effect. The activity expected by the combination of two active ingredients can be calculated as follows (Colby S. R., “Weed”, vol. 15, p. 20-22, 1967). E=α+β−(α×β[…]) where α: growth inhibition rate when treated with x (g/ha) of herbicide X, • β: growth inhibition rate when treated with y (g/ha) of herbicide Y, • E: growth inhibition rate expected when treated with x (g/ha) of herbicide X and y (g/ha) of herbicide Y.
(§2) On the 19th day after treatment, the state of growth of barnyardgrass was visually observed and evaluated in accordance with the following standards. The growth inhibition rate (%) [measured value] and the growth inhibition rate (%) [calculated value] calculated by the Colby's method, are shown in Table 2.
(§3) Growth inhibition rate (%)=inhibition rate) (%) of 0 (equivalent to the non-treated area) to 100 (complete kill)
(§4) Soil was put into a 1/300,000 ha pot, and seeds of large crabgrass (Digitaria sanquinalis L.) were sown. On the day after seeding, predetermined amounts of SC containing metobromuron as active ingredient (same as in Test Example 1) and EC containing pendimethalin as active ingredient (same as in Test Example 10) were diluted with water corresponding to 1,000 L per hectare and applied for soil treatment.
On the 27th day after treatment, the state of growth of large crabgrass was visually observed and evaluated in the same manner as in Test Example 1.

[2] = test system: Oriental lady's thumb (Persicaria longiseta); assay: Test Example 7: common bean field, soil treatment, metobromuron + trifluralin; details: soil, read-out: Growth inhibition rate of Oriental lady's thumb (%) Measured value
Description: as §1, §2
(§5) Growth inhibition rate (%)=inhibition rate) (%) of 0 (equivalent to the non-treated area) to 100 (complete kill) […]
On the 49th day after treatment, the state of growth of Oriental lady's thumb (Persicaria longiseta) which occurred naturally, was visually observed and evaluated in the same manner as in Test Example 1.

[3] = test system: black nightshade (Solanum nigrum L.); assay: Test Example 23: pot, soil treatment, metobromuron + fluazifop-P-butyl; details: Solanum nigrum, soil, read-out: Growth inhibition rate of black nightshade (%) Measured value
Description: as §1, §2, §3
Soil was put into a 1/300,000 ha pot, and seeds of black nightshade (Solanum nigrum L.) were sown. […]
On the 20th day after treatment, the state of growth of black nightshade was visually observed and evaluated in the same manner as in Test Example 1.

[4] = test system: giant foxtail (Setaria faberi Herrm.); assay: Test Example 16: pot, soil treatment, metobromuron + chlorpropham; details: soil, read-out: Growth inhibition rate of giant foxtail (%) Measured value
Description: as §1, §2, §3
as §4, with “barnyardgrass (Echinochloa crus-galli” for “large crabgrass (Digitaria sanquinalis”, “chlorpropham” for “pendimethalin”, “1)” for “10)”
On the 21st day after treatment, the state of growth of barnyardgrass was visually observed and evaluated in the same manner as in Test Example 1.
The test was carried out in the same manner as in Test Example 15 except that barnyardgrass (Echinochloa crus-galli L.) was changed to giant foxtail (Setaria faberi Herrm.), to obtain the results as shown in Table 17.

[5] = test system: large crabgrass (Diqitaria sanquinalis L.); assay: Test Example 11: corn field, foliar treatment, metobromuron + nicosulfuron; details: Digitaria sanguinalis, foliar, read-out: Growth inhibition rate of large crabgrass (%) Measured value
Description: as §1, §2, §5
On the 30th day after treatment, the state of growth of large crabgrass was visually observed and evaluated in the same manner as in Test Example 1.

[6] = test system: barnyardgrass (Echinochloa crus-qalli L.); assay: Test Example 4: soybean field, soil treatment, metobromuron + trifluralin; details: soil, read-out: Growth inhibition rate of barnyardgrass (%) Measured value
Description: as §1, §2, §5
On the 50th day after treatment, the state of growth of barnyardgrass (Echinochloa crus-qalli L.) which occurred naturally, was visually observed and evaluated in the same manner as in Test Example 1.

[7] = test system: common lambsquarters (Chenopodium album L.); assay: Test Example 30: pot, soil treatment, metobromuron + thiobencarb; details: soil, read-out: Growth inhibition rate of common lambsquarters (%) Measured value
Description: as §1, §2, §3
as §4, with “common lambsquarters (Chenopodium album” for “large crabgrass (Digitaria sanquinalis”, “thiobencarb” for “pendimethalin”, “(trade name: Saturn NYUZAI, manufactured by KUMIAI CHEMICAL INDUSTRY Co., Ltd.)” for “(same as in Test Example 10)”
On the 20th day after treatment, the state of growth of common lambsquarters was visually observed and evaluated in the same manner as in Test Example 1.

[8] = test system: barnyardgrass (Echinochloa crus-qalli L.); assay: Test Example 1: soybean field, soil treatment, metobromuron + chlorpropham; details: soil, read-out: Growth inhibition rate of barnyardgrass (%) Measured value
Description: When the herbicidal activity in a case where two active ingredients are combined, is larger than the simple sum of the respective herbicidal activities of the two active ingredients (the expected activity), it is called a synergistic effect. The activity expected by the combination of two active ingredients can be calculated as follows (Colby S. R., “Weed”, vol. 15, p. 20-22, 1967). E=α+β−(α×β[…]) where α: growth inhibition rate when treated with x (g/ha) of herbicide X, • β: growth inhibition rate when treated with y (g/ha) of herbicide Y, • E: growth inhibition rate expected when treated with x (g/ha) of herbicide X and y (g/ha) of herbicide Y. […]
as §2, with “2. […]” for “2.”

[9] = test system: common chickweed (Stellaria media L.); assay: Test Example 25: pot, soil treatment, metobromuron + trifluralin; details: soil, read-out: Growth inhibition rate of common chickweed (%) Measured value

## CON(C)C(=O)Nc1ccc(Br)cc1 [Metobromuron, 3-(4-bromophenyl)-1-methoxy-1-methylurea]
[1]
  inhibition at 62.5 g/ha: 0%
  inhibition at 125 g/ha: 15%
  inhibition at 250 g/ha: 35%
[2]
  inhibition at 1500 g/ha: 10%
[3]
  inhibition at 750 g/ha: 85%
[4]
  inhibition at 1000 g/ha: 78%
[5]
  inhibition at 1000 g/ha: 25%
[6]
  inhibition at 1000 g/ha: 30%
[7]
  inhibition at 250 g/ha: 78%
[8]
  inhibition at 1000 g/ha: 58%
[9]
  inhibition at 250 g/ha: 73%
